ChEMBL document CHEMBL3352742, “Synthesis, molecular docking and biological evaluation of coumarin derivatives containing piperazine skeleton as potential antibacterial agents” (Bioorg Med Chem, 2014)
pIC50: −log10 of the molar value. In brackets after ≈: the same amount, converted by molar mass.

Key:
Staphylococcus aureus = assay: Antibacterial against Staphylococcus aureus ATCC 25923 after 24 hrs by two-fold serial dilution method; assay type: functional; settings: ATCC 25923, 24 h
Pseudomonas aeruginosa = assay: Antibacterial against Pseudomonas aeruginosa ATCC 27853 after 24 hrs by two-fold serial dilution method; assay type: functional; settings: ATCC 27853, 24 h
Escherichia coli = assay: Antibacterial against Escherichia coli ATCC 25922 after 24 hrs by two-fold serial dilution method; assay type: functional; settings: ATCC 25922, 24 h
[1] = Inhibition of Staphylococcus aureus FabI assessed as oxidation of NADH to NAD+ by spectrophotometrically
Bacillus subtilis = assay: Antibacterial against Bacillus subtilis ATCC 530 after 24 hrs by two-fold serial dilution method; assay type: functional; settings: ATCC 530, 24 h
[2] = Cytotoxicity against human macrophages assessed as cell viability after 24 hrs by MTT assay; assay type: functional, cell-based; settings: Macrophage
[3] = Toxicity in human erythrocyte assessed as hemolysis by measuring hemoglobin release after 3 hrs; assay type: cell-based

| Structure (SMILES) | MIC (Staphylococcus aureus) [µg/mL] | MIC (Pseudomonas aeruginosa) [µg/mL] | MIC (Escherichia coli) [µg/mL] | pIC50 [1] | MIC (Bacillus subtilis) [µg/mL] | pIC50 [2] | LC30 [3] [µg/mL] |
| --- | --- | --- | --- | --- | --- | --- | --- |
| O=C(COc1cc(=O)oc2ccccc12)N1CCN(c2ccccc2)CC1 | 41.5 (≈ 114 µM) | > 50 | 33.6 (≈ 92.3 µM) | 4.34 | > 50 |  |  |
| O=C(COc1cc(=O)oc2ccccc12)N1CCN(c2ccc(Cl)c(Cl)c2)CC1 | > 50 | 48.1 (≈ 111 µM) | > 50 | 4.70 | 1.86 (≈ 4.29 µM) |  |  |
| O=C(COc1cc(=O)oc2ccccc12)N1CCN(c2ccccc2F)CC1 | > 50 | > 50 | > 50 | 4.36 | 31.3 (≈ 81.9 µM) |  |  |
| O=C(COc1cc(=O)oc2ccccc12)N1CCN(c2ccc(F)cc2)CC1 | 29.1 (≈ 76.1 µM) | > 50 | > 50 | 4.43 | 34.8 (≈ 91 µM) |  |  |
| COc1cccc(N2CCN(CC(O)COc3cc(=O)oc4ccccc34)CC2)c1 (stereo not given) | 1.83 (≈ 4.46 µM) | 17.1 (≈ 41.6 µM) | > 50 | 5.56 | 0.612 (≈ 1.49 µM) | 3.75 | > 10 |
| O=c1cc(OCC(O)CN2CCN(c3ccccc3)CC2)c2ccccc2o1 (stereo not given) | > 50 | > 50 | > 50 | 4.32 | 37.9 (≈ 99.7 µM) |  |  |
| O=c1cc(OCC(O)CN2CCN(Cc3ccccc3)CC2)c2ccccc2o1 (stereo not given) | 23 (≈ 58.4 µM) | > 50 | > 50 | 4.38 | > 50 |  |  |
| Cc1ccc(N2CCN(CC(O)COc3cc(=O)oc4ccccc34)CC2)c(C)c1 (stereo not given) | 1.44 (≈ 3.53 µM) | > 50 | > 50 | 5.21 | 2.86 (≈ 6.99 µM) | 3.89 | > 10 |
| O=c1cc(OCC(O)CN2CCN(c3ccc([N+](=O)[O-])cc3)CC2)c2ccccc2o1 (stereo not given) | 2.4 (≈ 5.63 µM) | 33 (≈ 77.6 µM) | > 50 | 5.42 | 3.65 (≈ 8.58 µM) | 3.82 | > 10 |
| COc1ccccc1N1CCN(CC(O)COc2cc(=O)oc3ccccc23)CC1 (stereo not given) | 2.52 (≈ 6.15 µM) | 49.8 (≈ 121 µM) | > 50 | 5.26 | 3.88 (≈ 9.46 µM) | 3.59 | > 10 |
| COc1ccc(N2CCN(CC(O)COc3cc(=O)oc4ccccc34)CC2)cc1 (stereo not given) | 0.355 (≈ 0.865 µM) | > 50 | > 50 | 6.24 | 0.236 (≈ 0.575 µM) | 3.70 | > 10 |
| O=c1cc(OCC(O)CN2CCN(c3cccc(Cl)c3Cl)CC2)c2ccccc2o1 (stereo not given) | 26 (≈ 57.8 µM) | > 50 | > 50 | 4.90 | 18.2 (≈ 40.4 µM) |  |  |
| O=c1cc(OCC(O)CN2CCN(c3ccc(Cl)c(Cl)c3)CC2)c2ccccc2o1 (stereo not given) | > 50 | > 50 | > 50 | 4.65 | 0.339 (≈ 0.754 µM) |  |  |
| O=c1cc(OCC(O)CN2CCN(c3ccccc3Cl)CC2)c2ccccc2o1 (stereo not given) | 11.6 (≈ 28.1 µM) | > 50 | > 50 | 4.75 | 13.9 (≈ 33.6 µM) |  |  |
